Measurements: ChEMBL document CHEMBL2074142, “Interaction of anionic cephalosporins with the intestinal and renal peptide transporters PEPT 1 and PEPT 2” (Biochim Biophys Acta, 1997)

Assays:
Format in all cases: functional, cell-based
[1] = target: T1, Solute carrier family 15 member 2 (Rattus norvegicus, UniProt Q63424); assay: TP_TRANSPORTER: inhibition of Gly-Sar uptake (Gly-Sar: 5 uM) in SKPT cells
T1 sequence (Q63424 whole entry): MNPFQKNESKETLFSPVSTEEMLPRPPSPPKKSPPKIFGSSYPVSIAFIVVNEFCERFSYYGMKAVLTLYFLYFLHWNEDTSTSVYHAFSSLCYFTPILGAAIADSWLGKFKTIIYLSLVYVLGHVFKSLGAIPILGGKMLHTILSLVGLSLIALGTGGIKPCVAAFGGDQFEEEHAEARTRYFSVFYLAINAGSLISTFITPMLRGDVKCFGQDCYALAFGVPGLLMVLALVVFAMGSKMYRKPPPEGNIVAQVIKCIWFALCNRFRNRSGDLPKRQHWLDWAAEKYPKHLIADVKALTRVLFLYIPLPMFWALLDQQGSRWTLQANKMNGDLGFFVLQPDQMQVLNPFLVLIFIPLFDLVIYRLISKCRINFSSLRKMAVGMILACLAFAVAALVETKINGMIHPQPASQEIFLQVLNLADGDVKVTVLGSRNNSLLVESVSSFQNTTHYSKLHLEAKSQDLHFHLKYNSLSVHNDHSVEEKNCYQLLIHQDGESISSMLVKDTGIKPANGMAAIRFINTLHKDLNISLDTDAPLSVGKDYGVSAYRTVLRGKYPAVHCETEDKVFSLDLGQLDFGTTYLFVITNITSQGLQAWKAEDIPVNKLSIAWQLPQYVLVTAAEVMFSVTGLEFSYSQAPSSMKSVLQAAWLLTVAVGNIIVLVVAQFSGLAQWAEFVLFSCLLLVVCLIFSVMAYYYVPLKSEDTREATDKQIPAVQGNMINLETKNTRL

[2] = target: T2, Solute carrier family 15 member 1 (Homo sapiens) (UniProt P46059); assay: TP_TRANSPORTER: inhibition of Gly-Sar uptake (Gly-Sar: 20 uM, Cefdinir: 10000 uM) in PEPT1-expressing HeLa cells
T2 sequence (whole entry): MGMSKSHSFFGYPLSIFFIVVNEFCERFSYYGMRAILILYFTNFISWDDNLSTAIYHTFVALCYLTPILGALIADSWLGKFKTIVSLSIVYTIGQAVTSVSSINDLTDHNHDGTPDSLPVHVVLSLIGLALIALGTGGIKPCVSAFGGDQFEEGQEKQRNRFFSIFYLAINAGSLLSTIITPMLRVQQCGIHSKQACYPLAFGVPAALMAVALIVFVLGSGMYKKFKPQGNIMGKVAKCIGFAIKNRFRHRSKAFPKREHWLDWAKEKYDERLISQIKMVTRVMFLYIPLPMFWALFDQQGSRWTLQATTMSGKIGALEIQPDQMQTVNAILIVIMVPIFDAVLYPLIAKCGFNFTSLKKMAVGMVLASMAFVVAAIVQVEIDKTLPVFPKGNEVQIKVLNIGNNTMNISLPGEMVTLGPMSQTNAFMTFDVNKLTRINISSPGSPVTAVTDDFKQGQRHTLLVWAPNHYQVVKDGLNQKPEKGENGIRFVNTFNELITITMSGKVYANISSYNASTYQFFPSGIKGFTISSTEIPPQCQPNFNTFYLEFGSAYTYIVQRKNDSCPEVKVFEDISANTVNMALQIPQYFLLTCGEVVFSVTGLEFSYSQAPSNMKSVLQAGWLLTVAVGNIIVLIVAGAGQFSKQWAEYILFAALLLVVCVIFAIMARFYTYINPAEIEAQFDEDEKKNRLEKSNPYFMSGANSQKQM

[3] = target: T3, Solute carrier family 15 member 2 (Homo sapiens) (UniProt Q16348); assay: TP_TRANSPORTER: inhibition of Gly-Sar uptake (Gly-Sar: 50 uM, Cefdinir: 10000 uM) in PEPT2-expressing HeLa cells
T3 sequence (whole entry): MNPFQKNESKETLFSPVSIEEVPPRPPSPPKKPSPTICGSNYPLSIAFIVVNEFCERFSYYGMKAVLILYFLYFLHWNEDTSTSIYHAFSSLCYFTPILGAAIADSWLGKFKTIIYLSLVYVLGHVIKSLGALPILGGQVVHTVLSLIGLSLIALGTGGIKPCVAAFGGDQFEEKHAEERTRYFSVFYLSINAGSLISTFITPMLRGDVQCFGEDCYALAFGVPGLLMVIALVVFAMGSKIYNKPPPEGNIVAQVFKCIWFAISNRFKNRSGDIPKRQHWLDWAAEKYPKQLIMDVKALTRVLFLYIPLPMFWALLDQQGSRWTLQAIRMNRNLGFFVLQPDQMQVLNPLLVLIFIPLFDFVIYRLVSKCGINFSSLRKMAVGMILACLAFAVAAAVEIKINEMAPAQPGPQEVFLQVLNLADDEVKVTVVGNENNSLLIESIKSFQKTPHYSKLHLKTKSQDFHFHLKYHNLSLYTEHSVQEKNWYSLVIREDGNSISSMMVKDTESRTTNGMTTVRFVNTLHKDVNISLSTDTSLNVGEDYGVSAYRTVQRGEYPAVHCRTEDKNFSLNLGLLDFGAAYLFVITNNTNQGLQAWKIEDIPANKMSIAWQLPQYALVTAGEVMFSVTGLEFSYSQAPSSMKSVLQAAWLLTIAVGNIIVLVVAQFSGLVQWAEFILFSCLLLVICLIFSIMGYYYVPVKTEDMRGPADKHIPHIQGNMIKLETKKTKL

[4] = target: T2, Solute carrier family 15 member 1 (Homo sapiens); assay: TP_TRANSPORTER: inhibition of Gly-Sar uptake (Gly-Sar: 20 uM, Cefixime: 10000 uM) in PEPT1-expressing HeLa cells
[5] = target: T3, Solute carrier family 15 member 2 (Homo sapiens); assay: TP_TRANSPORTER: inhibition of Gly-Sar uptake (Gly-Sar: 50 uM, Cefixime: 10000 uM) in PEPT2-expressing HeLa cells
[6] = target: T4, Solute carrier family 15 member 1 (Homo sapiens, UniProt P46059); assay: TP_TRANSPORTER: inhibition of Gly-Sar uptake (Gly-Sar: 5 uM) in Caco-2 cells
T4 sequence (P46059 whole entry): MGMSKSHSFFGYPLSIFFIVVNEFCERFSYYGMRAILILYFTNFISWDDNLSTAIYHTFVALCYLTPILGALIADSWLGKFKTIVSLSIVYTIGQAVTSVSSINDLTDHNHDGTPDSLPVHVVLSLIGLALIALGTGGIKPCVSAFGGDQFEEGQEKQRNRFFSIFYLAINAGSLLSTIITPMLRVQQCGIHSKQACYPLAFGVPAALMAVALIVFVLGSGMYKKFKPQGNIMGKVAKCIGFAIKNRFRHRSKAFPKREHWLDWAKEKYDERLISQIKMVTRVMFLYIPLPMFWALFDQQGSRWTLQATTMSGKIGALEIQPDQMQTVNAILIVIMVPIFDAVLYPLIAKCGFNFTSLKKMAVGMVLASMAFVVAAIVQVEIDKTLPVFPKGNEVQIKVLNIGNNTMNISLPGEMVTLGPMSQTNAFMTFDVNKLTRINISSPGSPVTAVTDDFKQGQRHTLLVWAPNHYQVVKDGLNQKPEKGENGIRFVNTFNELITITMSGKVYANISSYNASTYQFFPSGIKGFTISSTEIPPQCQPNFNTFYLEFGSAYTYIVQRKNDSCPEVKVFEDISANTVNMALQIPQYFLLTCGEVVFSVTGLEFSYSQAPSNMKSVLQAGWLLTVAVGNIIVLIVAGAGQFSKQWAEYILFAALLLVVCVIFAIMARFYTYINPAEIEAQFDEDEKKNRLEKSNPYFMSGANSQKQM

[7] = target: T5, Solute carrier family 15 member 2 (Homo sapiens, UniProt Q16348); assay: TP_TRANSPORTER: inhibition of Gly-Sar uptake in PEPT2-expressing HeLa cells
T5 sequence (Q16348 whole entry): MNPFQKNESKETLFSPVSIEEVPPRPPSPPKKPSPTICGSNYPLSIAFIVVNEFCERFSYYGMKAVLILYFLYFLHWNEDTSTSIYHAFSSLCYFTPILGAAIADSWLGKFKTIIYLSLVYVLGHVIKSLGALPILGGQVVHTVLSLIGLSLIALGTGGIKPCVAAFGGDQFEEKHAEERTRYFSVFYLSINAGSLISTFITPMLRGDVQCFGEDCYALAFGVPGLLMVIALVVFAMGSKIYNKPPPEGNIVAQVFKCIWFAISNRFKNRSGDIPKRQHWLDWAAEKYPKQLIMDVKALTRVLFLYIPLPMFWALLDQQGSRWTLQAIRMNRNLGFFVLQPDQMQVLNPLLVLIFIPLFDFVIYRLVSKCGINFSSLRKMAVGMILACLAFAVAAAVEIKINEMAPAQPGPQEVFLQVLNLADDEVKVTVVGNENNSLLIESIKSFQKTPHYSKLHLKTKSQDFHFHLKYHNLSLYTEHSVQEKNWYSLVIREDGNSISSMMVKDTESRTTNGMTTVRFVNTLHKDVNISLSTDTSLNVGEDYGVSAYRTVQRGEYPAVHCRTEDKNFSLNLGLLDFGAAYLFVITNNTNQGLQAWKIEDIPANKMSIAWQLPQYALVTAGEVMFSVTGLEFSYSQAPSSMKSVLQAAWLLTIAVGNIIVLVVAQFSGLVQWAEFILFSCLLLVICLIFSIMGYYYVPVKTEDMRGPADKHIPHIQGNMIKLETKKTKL

[8] = target: T4, Solute carrier family 15 member 1; assay: TP_TRANSPORTER: inhibition of Gly-Sar uptake in Caco-2 cells
[9] = target: T4, Solute carrier family 15 member 1; assay: TP_TRANSPORTER: inhibition of Gly-Sar uptake in PEPT1-expressing HeLa cells
[10] = target: T1, Solute carrier family 15 member 2; assay: TP_TRANSPORTER: inhibition of Gly-Sar uptake in SKPT cells
[11] = substrate: CN(CC(=O)O)C(=O)CN; assay: TP_TRANSPORTER: uptake in SKPT cells

Molecule: C=CC1=C(C(=O)O)N2C(=O)[C@@H](NC(=O)/C(=N\O)c3csc(N)n3)[C@H]2SC1 [CEFDINIR]
- IC50 [1]: 10000 µM
- inhibition [2]: 31%
- Activity [3]: 0.48

Molecule: C=CC1=C(C(=O)O)N2C(=O)[C@@H](NC(=O)/C(=N\OCC(=O)O)c3csc(N)n3)[C@H]2SC1 [CEFIXIME]
- inhibition [4]: 44%
- IC50 [1]: 3200 µM
- Activity [5]: 0.54
- IC50 [6]: 10000 µM

Molecule: Nc1nc(/C(=C/CC(=O)O)C(=O)N[C@@H]2C(=O)N3C(C(=O)O)=CCS[C@H]23)cs1 [CEFTIBUTEN]
- Ki [7]: 90 µM
- Ki [8]: 870 µM
- Ki [9]: 710 µM
- Ki [10]: 380 µM

B1: Solute carrier family 15 member 2 (Rattus norvegicus), Q63424 (protein)
chain: MNPFQKNESKETLFSPVSTEEMLPRPPSPPKKSPPKIFGSSYPVSIAFIVVNEFCERFSYYGMKAVLTLYFLYFLHWNEDTSTSVYHAFSSLCYFTPILGAAIADSWLGKFKTIIYLSLVYVLGHVFKSLGAIPILGGKMLHTILSLVGLSLIALGTGGIKPCVAAFGGDQFEEEHAEARTRYFSVFYLAINAGSLISTFITPMLRGDVKCFGQDCYALAFGVPGLLMVLALVVFAMGSKMYRKPPPEGNIVAQVIKCIWFALCNRFRNRSGDLPKRQHWLDWAAEKYPKHLIADVKALTRVLFLYIPLPMFWALLDQQGSRWTLQANKMNGDLGFFVLQPDQMQVLNPFLVLIFIPLFDLVIYRLISKCRINFSSLRKMAVGMILACLAFAVAALVETKINGMIHPQPASQEIFLQVLNLADGDVKVTVLGSRNNSLLVESVSSFQNTTHYSKLHLEAKSQDLHFHLKYNSLSVHNDHSVEEKNCYQLLIHQDGESISSMLVKDTGIKPANGMAAIRFINTLHKDLNISLDTDAPLSVGKDYGVSAYRTVLRGKYPAVHCETEDKVFSLDLGQLDFGTTYLFVITNITSQGLQAWKAEDIPVNKLSIAWQLPQYVLVTAAEVMFSVTGLEFSYSQAPSSMKSVLQAAWLLTVAVGNIIVLVVAQFSGLAQWAEFVLFSCLLLVVCLIFSVMAYYYVPLKSEDTREATDKQIPAVQGNMINLETKNTRL
- Km [11]: 74.5 µM
